This assay addresses T1, RORγt (hRORC LBD) (Homo sapiens, UniProt P51449).
T1 construct: expressed in transfected cells; host or cells: HEK 293 (transient cotransfection with pGL4.3 luc2P/GAL4UAS/Hygro reporter)
T1 sequence (P51449 269-508 limits assumed): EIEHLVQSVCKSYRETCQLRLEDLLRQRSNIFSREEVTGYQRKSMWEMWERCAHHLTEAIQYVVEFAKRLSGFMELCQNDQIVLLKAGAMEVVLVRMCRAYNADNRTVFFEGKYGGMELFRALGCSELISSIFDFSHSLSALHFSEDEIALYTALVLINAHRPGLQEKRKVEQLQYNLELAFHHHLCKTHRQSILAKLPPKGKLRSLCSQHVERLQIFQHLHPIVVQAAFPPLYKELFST
As to the kind of experiment: RGA Assay: nuclear receptor transactivation assay, RORγt transactivation of a luciferase reporter. The assay is classed as cell-based. The following applies: transiently transfected HEK 293 cells, Gal4DBD hRORC LBD, 20-24 hours incubation. The procedure:
A nuclear receptor transactivation assay was performed to quantitate the ability of test compounds to inhibit RORγt transactivation of a luciferase reporter. A similar assay is described in: Khan et al., Bioorganic & Medicinal Chemistry Letters 23 (2013), 532-536. The system uses transiently transfected HEK 293 cells cotransfected with two plasmids (pGL4.3, luc2P/GAL4UAS/Hygro, and pBIND, Gal4DBD hRORC LBD1-3). The positive control is co-transiently transfected with both plasmids, and the negative control contains the pGL4.3 promoter sequence. Assays were assembled in 384 well plates where transiently transfected cells and test compound at varying concentrations were incubated for 20-24 hours. The next day, assays plates are taken out and equilibrated at RT for 20-30 minutes. Bright-Glo™ Luciferase Assay System is used to detect Luciferase production. After addition of Bright GLO detection reagent, the plates were incubated at RT for 20 minutes. The plates were read on an Envision plate reader to measure luminescence signal. The RLU signal is converted to POC relative to control and blank wells.
Compound Dilution Buffer:
Bright Glo Luciferase Assay System: Promega #E2620
Thaw lysis buffer provided in kit, add 100 mL lysis buffer to substrate powder.

With `CNS(=O)(=O)c1ccc(CNC(=O)N2CC3(CCCC3)c3cc(-c4ccc(OC)nc4C)ccc32)cc1` [Example 68], inhibition was half-maximal at 1900 nM (IC50).

The molecule `CCC1(C2CC2)CN(C(=O)NCc2ccc(S(=O)(=O)CC)cc2)c2ccc(-c3c(OC)ncnc3C3CC3)cc21` (stereo not shown) [Example 118] yielded an IC50 of 470 nM.

Regarding `CNS(=O)(=O)c1ccc(CNC(=O)N2CC3(CCCC3)c3cc(-c4ccc(OC)cc4C(F)(F)F)ccc32)cc1` [Example 6], the IC50 was 310 nM.

As for `CCOC(=O)c1ccccc1-c1ccc2c(c1)C1(CCCC1)CN2C(=O)NCc1ccc(S(=O)(=O)NC)cc1` [Example 24], half-maximal inhibition (IC50) was put at 1300 nM.

`CNc1ccc(-c2ccc3c(c2)C2(CCCC2)CN3C(=O)NCc2ccc(S(=O)(=O)NC)cc2)c(C)c1` [Example 44] had an IC50 of 1100 nM.

`CNS(=O)(=O)c1ccc(CNC(=O)N2CC3(CCCC3)c3cc(-c4cc(F)ccc4C(F)(F)F)ccc32)cc1` [Example 7] had an IC50 of 340 nM.

The molecule `CNS(=O)(=O)c1ccc(CNC(=O)N2CC3(CCCC3)c3cc(-c4ccc(OC)cc4C)ccc32)cc1` [Example 23] had a concentration for half-maximal inhibition (IC50) of 1200 nM.

`CNS(=O)(=O)c1ccc(CNC(=O)N2CC3(CCCC3)c3cc(-c4ccc(C)cc4C)ccc32)cc1` [Example 14]: the IC50 turned out to be 870 nM.

For `CCS(=O)(=O)c1ccc(CNC(=O)N2C[C@](C)(C3CC3)c3cc(-c4c(OC)ncnc4C4CC4)ccc32)cc1` [Example 127], half-maximal inhibition (IC50) was put at 500 nM.

The molecule `CCC1(CC)CN(C(=O)NCc2ccc(S(=O)(=O)NC)cc2)c2ccc(-c3ccc(F)cc3C)cc21` [Example 52] gave an IC50 of 1100 nM.

For `CCS(=O)(=O)c1ccc(CNC(=O)N2CC3(CCC3)c3cc(-c4c(OC)ncnc4C4CC4)ccc32)cc1` [Example 128], it took 210 nM to reach half-maximal inhibition (IC50).

Turning to `CNS(=O)(=O)c1ccc(CNC(=O)N2CC3(CCCC3)c3cc(-c4cc(F)ccc4C)ccc32)cc1` [Example 16], half-maximal inhibition (IC50) was put at 960 nM.

The molecule `CCS(=O)(=O)c1ccc(CNC(=O)N2CC3(CCCC3)c3cc(-c4cc(CN5CCS(=O)(=O)CC5)ccc4C)ccc32)cc1` [Example 124] registered an IC50 of 1400 nM.

Take `CNS(=O)(=O)c1ccc(CNC(=O)N2CC3(CCCC3)c3cc(-c4cc(S(=O)(=O)N(C)C)ccc4C)ccc32)cc1` [Example 13]: half-maximal inhibition (IC50) was put at 840 nM.

In turn, `CCS(=O)(=O)c1ccc(CNC(=O)N2CC(C)(C3CC3)c3cc(-c4cncnc4C(C)C)ccc32)cc1` (stereo not shown) [Example 113] had an IC50 of 530 nM.

`CCCC1(C)CN(C(=O)NCc2ccc(S(=O)(=O)NC)cc2)c2ccc(-c3ccc(OC)cc3C(F)(F)F)cc21` (stereo not shown) [Example 64] displayed an IC50 of 470 nM.

`CNS(=O)(=O)c1ccc(CNC(=O)N2CC3(CCCC3)c3cc(-c4cnc(OC)cc4C)ccc32)cc1` [Example 49] showed an IC50 of 1900 nM.

As for `CN(C)c1ncc(-c2ccc3c(c2)C2(CCCC2)CN3C(=O)NCc2ccc(S(C)(=O)=O)cc2)c(C(F)(F)F)n1` [Example 106], the IC50 is 650 nM.

With `CCS(=O)(=O)c1ccc(CNC(=O)N2CC3(CCCC3)c3cc(-c4cc(CN5CCC(C#N)CC5)ccc4C)ccc32)cc1` [Example 123], the midpoint of inhibition, the IC50, lay at 600 nM.

Consider `COCCOc1cc(C#N)ccc1CNC(=O)N1CC2(CCCC2)c2cc(-c3ccc(OC)cc3C(F)(F)F)ccc21` [Example 100], for which it took 1200 nM to reach half-maximal inhibition (IC50).

As for `CNS(=O)(=O)c1ccc(CNC(=O)N2CC3(CCCC3)c3cc(-c4cc(CN5CCC(O)C5)ccc4C)ccc32)cc1` (stereo not shown) [Example 103], half-maximal inhibition (IC50) required 1800 nM.

`CNS(=O)(=O)c1ccc(CNC(=O)N2CC3(CCCC3)c3cc(-c4ccccc4OC(F)(F)F)ccc32)cc1` [Example 73] had an IC50 of 460 nM.

`COc1ncc(-c2ccc3c(c2)C2(CCCC2)CN3C(=O)NCc2ccc(S(C)(=O)=O)cc2)c(C2CC2)n1` [Example 108] came in with an IC50 of 1600 nM.

For `CNS(=O)(=O)c1ccc(CNC(=O)N2CC3(CCCC3)c3cc(-c4c(C)ccc5c4cnn5C)ccc32)cc1` [Example 32], 750 nM corresponded to half-maximal inhibition (IC50).

`CCS(=O)(=O)c1ccc(CNC(=O)N2CC3(CC3)c3cc(-c4c(OC)ncnc4C4CC4)ccc32)cc1` [Example 125]: the IC50 is 1100 nM.

In turn, `CCS(=O)(=O)c1ccc(CNC(=O)N2CC3(CCCC3)c3cc(-c4c(OC)ncnc4C4CC4)ccc32)cc1` [Example 112] returned an IC50 of 520 nM.

In turn, `CNS(=O)(=O)c1ccc(CNC(=O)N2CC3(CCCC3)c3cc(-c4cccc(C)c4C)ccc32)cc1` [Example 22] showed an IC50 of 1200 nM.

For `CCS(=O)(=O)c1ccc(CNC(=O)N2CC3(CCCC3)c3cc(-c4c(C)ccnc4OC)ccc32)cc1` [Example 114], the midpoint of inhibition, the IC50, lay at 500 nM.

For the molecule `CNS(=O)(=O)c1ccc(CNC(=O)N2CC3(CCCC3)c3cc(-c4ccc5c(cnn5C)c4C)ccc32)cc1` [Example 40], the half-inhibitory concentration (IC50) amounted to 1100 nM.

`CNS(=O)(=O)c1ccc(CNC(=O)N2CC3(CCCC3)c3cc(-c4ccccc4C(=O)OC)ccc32)cc1` [Example 19] came in with an IC50 of 1100 nM.

In turn, `CCC1(C)CN(C(=O)NCc2ccc(S(=O)(=O)NC)cc2)c2ccc(-c3ccc(F)cc3C)cc21` (stereo not shown) [Example 53] returned an IC50 of 1200 nM.

As for `CCC(C)c1ncncc1-c1ccc2c(c1)C1(CCCC1)CN2C(=O)NCc1ccc(S(C)(=O)=O)cc1` (stereo not shown) [Example 107], the concentration for half-maximal inhibition (IC50) is 1500 nM.

In the case of `CNS(=O)(=O)c1ccc(CNC(=O)N2CC3(CCCC3)c3cc(Oc4cccc(OC(F)(F)F)c4)ccc32)cc1` [Example 61], the IC50 worked out at 730 nM.

Take `CNS(=O)(=O)c1ccc(CNC(=O)N2CC3(CCCC3)c3cc(-c4ccc(C)cc4C#N)ccc32)cc1` [Example 39]: the IC50 turned out to be 1000 nM.

With `CNS(=O)(=O)c1ccc(CNC(=O)N2CC3(CCCC3)c3cc(-c4ccccc4C(C)(C)O)ccc32)cc1` [Example 86], the concentration for half-maximal inhibition (IC50) came out at 1000 nM.

The molecule `CNS(=O)(=O)c1ccc(CNC(=O)N2CC3(CCCCC3)c3cc(-c4ccc(F)cc4C)ccc32)cc1` [Example 55] had an IC50 of 1500 nM.

As to `CNS(=O)(=O)c1ccc(CNC(=O)N2CC3(CCCC3)c3cc(-c4c(C)ccc(F)c4CC#N)ccc32)cc1` [Example 90], the IC50 was found to be 580 nM.

`CNS(=O)(=O)c1ccc(CNC(=O)N2CC3(CCCC3)c3cc(-c4ccccc4COC(C)(C)C)ccc32)cc1` [Example 81] returned an IC50 of 980 nM.

In turn, `COc1ccc(-c2ccc3c(c2)C2(CCCC2)CN3C(=O)NCc2ccc(C#N)cc2OC)c(C(F)(F)F)c1` [Example 96] came in with an IC50 of 450 nM.

`CNS(=O)(=O)c1ccc(CNC(=O)N2CC3(CCCC3)c3cc(-c4cc(C#N)ccc4C)ccc32)cc1` [Example 41] yielded a half-inhibitory concentration (IC50) of 1100 nM.

`CCS(=O)(=O)c1ccc(CNC(=O)N2CC3(CCCC3)c3cc(-c4ccc(O)cc4C)ccc32)cc1` [Example 67]: half-maximal inhibition (IC50) was put at 410 nM.

In turn, `CNS(=O)(=O)c1ccc(CNC(=O)N2CC3(CCCC3)c3cc(-c4cc(C)ccc4C)ccc32)cc1` [Example 3] registered an IC50 of 1000 nM.

In turn, `CNS(=O)(=O)c1ccc(CNC(=O)N2CC3(CCCC3)c3cc(-c4cccc5[nH]nc(C)c45)ccc32)cc1` [Example 47] returned an IC50 of 1500 nM.

Molecule `CNS(=O)(=O)c1ccc(CNC(=O)N2CC3(CCCC3)c3cc(-c4ccc5[nH]ncc5c4C)ccc32)cc1` [Example 48] displayed a 50% inhibitory concentration (IC50) of 1600 nM.

The molecule `CNS(=O)(=O)c1ccc(CNC(=O)N2CC3(CCCC3)c3cc(-c4ccccc4CC#N)ccc32)cc1` [Example 45] came in with an IC50 of 1200 nM.

Consider `CNS(=O)(=O)c1ccc(CNC(=O)N2CC3(CCCC3)c3cc(-c4cc(F)ccc4C(=O)OC)ccc32)cc1` [Example 79], for which the IC50 came out at 940 nM.

The values above are taken from patent publication US9745267B2, “Compounds as modulators of RORC” (Boehringer Ingelheim International GmbH, priority 2013, dated 2017).
